Experimental data reported in ChEMBL document CHEMBL5537158, “Polymyxins with Potent Antibacterial Activity against Colistin-Resistant Pathogens: Fine-Tuning Hydrophobicity with Unnatural Amino Acids” (J Med Chem, 2024).
Positions of bridges follow the written chain, without caps; N, C: chain ends. Non-standard residues stand in square brackets, D forms with d. Residues, ends and D or L forms follow the SMILES beside them. *: point of attachment. dPhe(3,4,5-F3) = N[C@H](Cc1cc(F)c(F)c(F)c1)C(=O)O; Phe(4-Br) = N[C@@H](Cc1ccc(Br)cc1)C(=O)O; Phe(4-Cl) = N[C@@H](Cc1ccc(Cl)cc1)C(=O)O; dPhe(3-F) = N[C@H](Cc1cccc(F)c1)C(=O)O; d(hhPhe) = N[C@H](CCCc1ccccc1)C(=O)O; d(hPhe) = N[C@H](CCc1ccccc1)C(=O)O; hhPhe = N[C@@H](CCCc1ccccc1)C(=O)O; dAoc(2) = CCCCCC[C@@H](N)C(=O)O; hLeu = CC(C)CC[C@H](N)C(=O)O; Octanoyl = CCCCCCCC(=O)*; Dab = NCC[C@H](N)C(=O)O

Assay: Hemolytic activity in human RBC at 400 ug/ml after 1 hr
Assay type: toxicity, cell-based, Erythrocyte
Conditions: red blood cells (erythrocytes), at 400 µg/mL, read-out: Activity

SMILES | hemolysis at 1 h, 400 ug/ml [%]
CCCCCCCC(=O)N[C@@H](CCN)C(=O)N[C@H](C(=O)N[C@@H](CCN)C(=O)N[C@H]1CCNC(=O)[C@H]([C@@H](C)O)NC(=O)[C@H](CCN)NC(=O)[C@H](CCN)NC(=O)[C@H](Cc2ccc(Br)cc2)NC(=O)[C@@H](CC(C)C)NC(=O)[C@H](CCN)NC1=O)[C@@H](C)O (Octanoyl-[Dab]T[Dab][Dab][Dab][dL][Phe(4-Br)][Dab][Dab]T; lactam 4-C) | < 10
CCCCCCCC(=O)N[C@@H](CCN)C(=O)N[C@H](C(=O)N[C@@H](CCN)C(=O)N[C@H]1CCNC(=O)[C@H]([C@@H](C)O)NC(=O)[C@H](CCN)NC(=O)[C@H](CCN)NC(=O)[C@H](CC(C)C)NC(=O)[C@@H](Cc2cccc(F)c2)NC(=O)[C@H](CCN)NC1=O)[C@@H](C)O (Octanoyl-[Dab]T[Dab][Dab][Dab][dPhe(3-F)]L[Dab][Dab]T; lactam 4-C) | < 10
CCCCCCCC(=O)N[C@@H](CCN)C(=O)N[C@H](C(=O)N[C@@H](CCN)C(=O)N[C@H]1CCNC(=O)[C@H]([C@@H](C)O)NC(=O)[C@H](CCN)NC(=O)[C@H](CCN)NC(=O)[C@H](Cc2ccccc2)NC(=O)[C@@H](CCCCCC)NC(=O)[C@H](CCN)NC1=O)[C@@H](C)O (Octanoyl-[Dab]T[Dab][Dab][Dab][dAoc(2)]F[Dab][Dab]T; lactam 4-C) | < 10
CCCCCCCC(=O)N[C@@H](CCN)C(=O)N[C@H](C(=O)N[C@@H](CCN)C(=O)N[C@H]1CCNC(=O)[C@H]([C@@H](C)O)NC(=O)[C@H](CCN)NC(=O)[C@H](CCN)NC(=O)[C@H](CC(C)C)NC(=O)[C@@H](CCc2ccccc2)NC(=O)[C@H](CCN)NC1=O)[C@@H](C)O (Octanoyl-[Dab]T[Dab][Dab][Dab][d(hPhe)]L[Dab][Dab]T; lactam 4-C) | < 10
CCCCCCCC(=O)N[C@@H](CCN)C(=O)N[C@H](C(=O)N[C@@H](CCN)C(=O)N[C@H]1CCNC(=O)[C@H]([C@@H](C)O)NC(=O)[C@H](CCN)NC(=O)[C@H](CCN)NC(=O)[C@H](CCCc2ccccc2)NC(=O)[C@@H](CC(C)C)NC(=O)[C@H](CCN)NC1=O)[C@@H](C)O (Octanoyl-[Dab]T[Dab][Dab][Dab][dL][hhPhe][Dab][Dab]T; lactam 4-C) | < 10
CCCCCCCC(=O)N[C@@H](CCN)C(=O)N[C@H](C(=O)N[C@@H](CCN)C(=O)N[C@H]1CCNC(=O)[C@H]([C@@H](C)O)NC(=O)[C@H](CCN)NC(=O)[C@H](CCN)NC(=O)[C@H](CCCc2ccccc2)NC(=O)[C@@H](Cc2ccccc2)NC(=O)[C@H](CCN)NC1=O)[C@@H](C)O | < 10
CCCCCCCC(=O)N[C@@H](CCN)C(=O)N[C@H](C(=O)N[C@@H](CCN)C(=O)N[C@H]1CCNC(=O)[C@H]([C@@H](C)O)NC(=O)[C@H](CCN)NC(=O)[C@H](CCN)NC(=O)[C@H](CC(C)C)NC(=O)[C@@H](CCCc2ccccc2)NC(=O)[C@H](CCN)NC1=O)[C@@H](C)O (Octanoyl-[Dab]T[Dab][Dab][Dab][d(hhPhe)]L[Dab][Dab]T; lactam 4-C) | < 10
CCCCCCCC(=O)N[C@@H](CCN)C(=O)N[C@H](C(=O)N[C@@H](CCN)C(=O)N[C@H]1CCNC(=O)[C@H]([C@@H](C)O)NC(=O)[C@H](CCN)NC(=O)[C@H](CCN)NC(=O)[C@H](Cc2ccc(Cl)cc2)NC(=O)[C@@H](CC(C)C)NC(=O)[C@H](CCN)NC1=O)[C@@H](C)O (Octanoyl-[Dab]T[Dab][Dab][Dab][dL][Phe(4-Cl)][Dab][Dab]T; lactam 4-C) | < 10
CCCCCCCC(=O)N[C@@H](CCN)C(=O)N[C@H](C(=O)N[C@@H](CCN)C(=O)N[C@H]1CCNC(=O)[C@H]([C@@H](C)O)NC(=O)[C@H](CCN)NC(=O)[C@H](CCN)NC(=O)[C@H](CCC(C)C)NC(=O)[C@@H](Cc2ccccc2)NC(=O)[C@H](CCN)NC1=O)[C@@H](C)O (Octanoyl-[Dab]T[Dab][Dab][Dab][dF][hLeu][Dab][Dab]T; lactam 4-C) | < 10
CCCCCCCC(=O)N[C@@H](CCN)C(=O)N[C@H](C(=O)N[C@@H](CCN)C(=O)N[C@H]1CCNC(=O)[C@H]([C@@H](C)O)NC(=O)[C@H](CCN)NC(=O)[C@H](CCN)NC(=O)[C@H](Cc2ccccc2)NC(=O)[C@@H](CCc2ccccc2)NC(=O)[C@H](CCN)NC1=O)[C@@H](C)O (Octanoyl-[Dab]T[Dab][Dab][Dab][d(hPhe)]F[Dab][Dab]T; lactam 4-C) | < 10
CCCCCCCC(=O)N[C@@H](CCN)C(=O)N[C@H](C(=O)N[C@@H](CCN)C(=O)N[C@H]1CCNC(=O)[C@H]([C@@H](C)O)NC(=O)[C@H](CCN)NC(=O)[C@H](CCN)NC(=O)[C@H](CC(C)C)NC(=O)[C@@H](Cc2cc(F)c(F)c(F)c2)NC(=O)[C@H](CCN)NC1=O)[C@@H](C)O (Octanoyl-[Dab]T[Dab][Dab][Dab][dPhe(3,4,5-F3)]L[Dab][Dab]T; lactam 4-C) | < 10
CCCCCCCC(=O)N[C@@H](CCN)C(=O)N[C@H](C(=O)N[C@@H](CCN)C(=O)N[C@H]1CCNC(=O)[C@H]([C@@H](C)O)NC(=O)[C@H](CCN)NC(=O)[C@H](CCN)NC(=O)[C@H](Cc2ccccc2)NC(=O)[C@@H](CCCc2ccccc2)NC(=O)[C@H](CCN)NC1=O)[C@@H](C)O (Octanoyl-[Dab]T[Dab][Dab][Dab][d(hhPhe)]F[Dab][Dab]T; lactam 4-C) | < 10
